In patent US20250346599A1, “TRICYCLIC PHTHALAZINONE PARP INHIBITORS AND METHODS OF USE” (Valo Health, Inc., priority 2022, published 2025):

Legend:
[1] = target: PARP1 enzyme (Homo sapiens (Human), UniProt P09874); experiment: PARP Mass Spectroscopy Assay (PARP1 enzymatic assay, nicotinamide detection); assay type: biochemical; conditions: 5 nM PARP1, 5 uM β-NAD, 60 min at RT, NAM by mass spectrometry
Excerpt: Materials and Reagents: The PARP1 enzyme was purchased from BPS Bioscience (cat #80501). Tris-HCl, pH 8.0 was purchased from Corning (cat #46-031-CM). Magnesium chloride was purchased from Thermo Fisher Scientific (previously Honeywell Fluka, cat #63020-1L). All other assay components, activated DNA (cat #D4522), core histones (cat #SRP6590), β-Nicotinamide adenine dinucleotide (β-NAD—cat #N8285), 3ABA PARP1 small molecule inhibitor (from the PARP1 Enzyme Activity Assay kit, cat #17-10149), Sodium Chloride (NaCl, cat #56546-1L), Triton X-100 (cat #93443), Dithiothreitol (DTT, cat #43816-250 ML) were all purchased from Millipore Sigma.
Assay Buffer: The assay buffer includes the following reagents: 50 mM Tris-HCl pH 8.0, 50 mM NaCl, 10 mM, MgCl2, 0.01% Triton X-100, and 1 mM DTT.
PARP1 enzymatic assays were performed in 384-well plates in a total volume of 20 μL in the assay buffer. For concentration response curves, compounds were serially diluted 3-fold from 2 mM highest concentration […] to generate a 10-point curve, and 125 nL was transferred to the assay plate using the Echo acoustic dispenser for a final concentration range of 26.6 μM to […] in 10 μL reaction. Five microliters of 10 nM PARP1 enzyme and 100 nM core histones (2×) mix were added to the assay plates and pre-incubated for 30 mins at room temperature (RT). The reaction was initiated by the addition of a 5 μL of 10 uM β-NAD plus 0.02 mg/mL activated DNA (2×) mix. The reaction is incubated for 60 min at RT. The final concentration of the PARP1 enzyme and substrate concentrations were 5 nM and 5 uM, respectively. The positive control (high signal) and negative control (low signal) wells had 125 nL of DMSO in place of compounds. After the incubation is complete, the reaction is stopped by the addition of 10 μL of 10 uM of the 3ABA PARP1 inhibitor, incubated for 5 min at RT, and placed in the −80 C freezer for shipment to the Valo Health site in Branford Connecticut where mass spectrometry will be used to directly detect quantities of nicotinamide (NAM).
The percent inhibition of enzyme activity was calculated according to the following equation: […]
The values of Ssample, Shigh, and Slow in the equation refer to the NAM concentration detected in the assay wells, high control wells, and low control wells, respectively. To determine inhibitor IC50 values, % inhibition of the CRCs (concentration response curves) was fitted to the standard single-site four-parameter logistic equation.

[2] = target: human MDR1 (P-glycoprotein; P-gp) (Homo sapiens (Human), UniProt P08183); experiment: bi-directional MDCK-MDR1 permeability assay; assay type: in vitro ADME; conditions: for MDCK-MDR1 Papp A→B (10^−6 cm/s) / Papp A→B: apical to basolateral direction; for MDCK-MDR1 ER / efflux ratio: efflux ratio B→A/A→B; for Papp A→B: dog; for Papp A→B / efflux ratio: MDCK-MDR1; for efflux ratio: human, read-out: MDCK-MDR1 ER
Chain of human MDR1 (P-glycoprotein; P-gp) (P08183 whole entry): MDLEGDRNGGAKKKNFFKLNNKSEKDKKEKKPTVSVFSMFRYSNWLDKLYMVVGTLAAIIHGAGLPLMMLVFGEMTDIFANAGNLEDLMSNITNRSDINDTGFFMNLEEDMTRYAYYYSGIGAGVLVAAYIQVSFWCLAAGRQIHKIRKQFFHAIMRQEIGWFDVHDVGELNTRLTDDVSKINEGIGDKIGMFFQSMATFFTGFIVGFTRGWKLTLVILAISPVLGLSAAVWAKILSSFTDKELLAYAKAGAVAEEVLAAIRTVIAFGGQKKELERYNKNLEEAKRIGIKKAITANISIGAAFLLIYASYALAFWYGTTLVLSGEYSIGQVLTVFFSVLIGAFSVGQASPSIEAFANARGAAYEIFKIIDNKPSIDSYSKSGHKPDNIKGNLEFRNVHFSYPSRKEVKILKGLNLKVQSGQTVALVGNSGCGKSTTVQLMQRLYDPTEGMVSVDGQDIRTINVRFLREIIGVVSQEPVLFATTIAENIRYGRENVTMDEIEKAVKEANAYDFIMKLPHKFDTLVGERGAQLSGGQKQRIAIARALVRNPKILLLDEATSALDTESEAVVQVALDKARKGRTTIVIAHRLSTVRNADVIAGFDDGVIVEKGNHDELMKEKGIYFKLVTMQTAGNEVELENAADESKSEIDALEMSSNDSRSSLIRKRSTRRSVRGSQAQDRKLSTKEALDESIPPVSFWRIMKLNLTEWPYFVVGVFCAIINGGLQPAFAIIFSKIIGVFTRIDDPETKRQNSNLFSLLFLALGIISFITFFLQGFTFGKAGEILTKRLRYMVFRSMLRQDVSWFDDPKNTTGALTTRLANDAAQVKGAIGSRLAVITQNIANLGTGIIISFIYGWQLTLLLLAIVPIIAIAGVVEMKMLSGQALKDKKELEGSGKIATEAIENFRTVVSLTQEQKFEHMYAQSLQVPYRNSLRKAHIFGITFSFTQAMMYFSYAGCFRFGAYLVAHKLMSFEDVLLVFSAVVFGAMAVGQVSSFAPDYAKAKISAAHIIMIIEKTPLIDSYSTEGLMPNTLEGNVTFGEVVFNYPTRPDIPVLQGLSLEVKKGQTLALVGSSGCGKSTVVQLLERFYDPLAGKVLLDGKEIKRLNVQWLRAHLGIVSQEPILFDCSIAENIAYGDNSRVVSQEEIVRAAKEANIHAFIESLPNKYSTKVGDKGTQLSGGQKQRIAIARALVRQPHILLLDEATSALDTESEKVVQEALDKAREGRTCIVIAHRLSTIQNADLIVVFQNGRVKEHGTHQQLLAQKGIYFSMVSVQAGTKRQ
Excerpt: The bi-directional assay containing a Mandin Darby canine kidney (MDCK) cell line transfected with human MDR1 gene (P-glycoprotein; P-gp) designed to overexpress the MDR1 efflux transporter, a major efflux transporter at the blood brain barrier (BBB), uses an established method that measures the rate of flux of a compound across polarized cell monolayers. As well appreciated in the art, the data generated from the MDCK-MDR1 permeability assay may be used to predict in vivo absorption of drugs. The bi-directional MDCK-MDR1 permeability assay can identify and quantify levels of active efflux. Screening compounds in both the apical to basolateral direction (A→B) and basolateral to apical direction (B→A) across the cell monolayer provides a ratio of B→A/A→B (efflux ratio; “ER”). Unlike the Caco-2 assay, the MDCK-MDR1 assay is not subject to potential efflux interference by breast cancer resistance protein (BCRP). […] The data may further be used to predict blood brain barrier (BBB) permeability via calculation from the data of log(permeability-surface area product) (“log PS”), well-understood to be predictive of the in vivo log([brain concentration]/[plasma concentration]).

Chain of PARP1 enzyme (P09874 whole entry): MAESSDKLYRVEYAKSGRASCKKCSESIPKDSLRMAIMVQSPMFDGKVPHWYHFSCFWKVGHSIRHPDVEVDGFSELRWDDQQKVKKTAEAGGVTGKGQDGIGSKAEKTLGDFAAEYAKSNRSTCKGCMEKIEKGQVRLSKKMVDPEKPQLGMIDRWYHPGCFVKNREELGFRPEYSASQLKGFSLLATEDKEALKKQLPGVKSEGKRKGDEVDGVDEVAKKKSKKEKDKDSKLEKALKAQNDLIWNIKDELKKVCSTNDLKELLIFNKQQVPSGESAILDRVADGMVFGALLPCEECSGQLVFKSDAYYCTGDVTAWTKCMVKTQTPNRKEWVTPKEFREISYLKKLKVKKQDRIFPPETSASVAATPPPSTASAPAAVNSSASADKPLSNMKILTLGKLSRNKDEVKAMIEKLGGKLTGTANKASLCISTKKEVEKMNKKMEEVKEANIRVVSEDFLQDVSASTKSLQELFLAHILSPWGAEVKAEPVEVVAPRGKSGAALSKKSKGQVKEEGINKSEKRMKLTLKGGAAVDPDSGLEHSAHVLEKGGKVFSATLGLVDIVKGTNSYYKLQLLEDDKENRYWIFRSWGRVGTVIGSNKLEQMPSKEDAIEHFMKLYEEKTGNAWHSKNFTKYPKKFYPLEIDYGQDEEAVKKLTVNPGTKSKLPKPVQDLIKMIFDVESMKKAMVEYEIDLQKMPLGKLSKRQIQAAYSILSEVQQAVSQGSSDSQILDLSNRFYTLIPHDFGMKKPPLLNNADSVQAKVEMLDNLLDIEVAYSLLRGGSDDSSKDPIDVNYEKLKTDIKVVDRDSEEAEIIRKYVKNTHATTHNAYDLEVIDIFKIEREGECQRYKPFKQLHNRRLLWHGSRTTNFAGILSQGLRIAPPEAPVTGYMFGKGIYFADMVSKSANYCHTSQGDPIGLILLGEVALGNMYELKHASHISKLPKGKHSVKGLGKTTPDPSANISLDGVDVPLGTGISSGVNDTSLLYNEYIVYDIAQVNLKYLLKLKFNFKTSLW

SMILES | IC50 [1] [nM] | MDCK-MDR1 Papp A→B (10^−6 cm/s) [2] | MDCK-MDR1 ER [2] | Papp A→B [2] [×10⁻⁶ cm/s] | efflux ratio [2]
O=c1[nH]nc2c3c(cc(F)cc13)N[C@@H]([C@H]1CCOC1)[C@@H]2c1ccc(F)cc1F [Compound 0115C] | 252 | 4.82 10^−6 cm/s | 4.67 | – | –
O=c1[nH]nc2c3c(cc(F)cc13)N[C@H]([C@H]1CCOC1)[C@H]2c1ccc(F)cc1F [Compound 0115A] | 10 | 8.3 10^−6 cm/s | 1.73 | – | –
C[C@H]1Nc2cc(F)cc3c(=O)[nH]nc(c23)[C@@H]1c1ccc(F)cc1F [Compound 0174A, (8R,9R)-9-(2,4-difluorophenyl)-5-fluoro-8-methyl-2,7,8,9-tetrahydro-3H-pyrido[4,3,2-de]phthalazin-3-one] | 36 | – | – | 14 | 0.532
O=c1[nH]nc2c3c(cc(F)cc13)NC[C@H]2c1ccccc1Cl [Compound 0120A, (R)-9-(2-chlorophenyl)-5-fluoro-2,7,8,9-tetrahydro-3H-pyrido[4,3,2-de]phthalazin-3-one] | 87 | – | – | 12.9 | 0.655
C[C@@H]1Nc2cc(F)cc3c(=O)[nH]nc(c23)[C@H]1c1ccc(Cl)c(F)c1 [Compound 0195B, (8S,9S)-9-(4-chloro-3-fluorophenyl)-5-fluoro-8-methyl-2,7,8,9-tetrahydro-3H-pyrido[4,3,2-de]phthalazin-3-one] | 26 | – | – | 16.4 | 0.691
O=c1[nH]nc2c3c(cc(F)cc13)NC[C@@H]2c1ccccc1Cl [Compound 0120B, (S)-9-(2-chlorophenyl)-5-fluoro-2,7,8,9-tetrahydro-3H-pyrido[4,3,2-de]phthalazin-3-one] | 47 | – | – | 13.3 | 0.612
C[C@H]1Nc2cc(F)cc3c(=O)[nH]nc(c23)[C@@H]1c1ccccc1Cl [Compound 0172A, (8R,9R)-9-(2-chlorophenyl)-5-fluoro-8-methyl-2,7,8,9-tetrahydro-3H-pyrido[4,3,2-de]phthalazin-3-one] | 10 | – | – | 11 | 0.658
O=c1[nH]nc2c3c(cc(F)cc13)NC(C1CCOC1)C2c1ccccc1Cl (stereo not drawn) [Compound 0121-4] | 39 | – | – | – | –
O=c1[nH]nc2c3c(cc(F)cc13)NC[C@H]2c1ccc(F)cc1F [Compound 0114A, (R)-9-(2,4-difluorophenyl)-5-fluoro-2,7,8,9-tetrahydro-3H-pyrido[4,3,2-de]phthalazin-3-one] | 270 | – | – | – | –
O=c1[nH]nc2c3c(cc(F)cc13)N[C@@H]([C@@H]1CCOC1)[C@@H]2c1ccc(F)cc1F [Compound 0115D] | – | 4.94 10^−6 cm/s | 4.28 | – | –
CN1CCC([C@H]2Nc3cc(F)cc4c(=O)[nH]nc(c34)[C@@H]2c2ccc(F)cc2F)CC1 [Compound 0110A, (8R,9R)-9-(2,4-difluorophenyl)-5-fluoro-8-(1-methylpiperidin-4-yl)-2,7,8,9-tetrahydro-3H-pyrido[4,3,2-de]phthalazin-3-one] | 1400 | – | – | – | –
O=c1[nH]nc2c3c(cc(F)cc13)N[C@@H](c1c(F)cc(F)cc1F)[C@@H]2C1CCNCC1 [Compound 0098B] | 30 | – | – | – | –
CN1CCCC[C@@H]1[C@@H]1CNc2cc(F)cc3c(=O)[nH]nc1c23 [Compound 0192A] | 27 | – | – | – | –
N#Cc1ccc([C@H]2CNc3cc(F)cc4c(=O)[nH]nc2c34)cc1F [Compound 0186B] | 41 | – | – | – | –
C[C@H]1Nc2cc(F)cc3c(=O)[nH]nc(c23)[C@@H]1[C@@H]1CCCN(C)C1 [Compound 0198D] | 42 | – | – | – | –

Other lines, results leading:

IC50 [1] [nM] | MDCK-MDR1 Papp A→B (10^−6 cm/s) [2] | MDCK-MDR1 ER [2] | Papp A→B [2] [×10⁻⁶ cm/s] | efflux ratio [2] | SMILES
– | 0.568 10^−6 cm/s | 21.7 | – | – | Cn1ncnc1[C@@H]1c2n[nH]c(=O)c3cc(F)cc(c23)N[C@H]1C1CC1 [Compound 0203B]
– | 0.335 10^−6 cm/s | 3.98 | – | – | CC(=O)N1CCC([C@@H]2Nc3cc(F)cc4c(=O)[nH]nc(c34)[C@H]2c2ncnn2C)CC1 [Compound 0218B]
142 | 2.27 10^−6 cm/s | 9.91 | – | – | O=c1[nH]nc2c3c(cc(F)cc13)N[C@H](C1CCOCC1)[C@H]2c1ccccc1Cl [Compound 0210B, (11R,12R)-12-(2-chlorophenyl)-7-fluoro-11-(oxan-4-yl)-2,3,10-triazatricyclo[7.3.1.0^{5,13}]trideca-1,5(13),6,8-tetraen-4-one]
27 | 9.25 10^−6 cm/s | 2.67 | – | – | O=c1[nH]nc2c3c(cc(F)cc13)NC[C@H]2c1ccccn1 [Compound 0211A]
6 | 14.4 10^−6 cm/s | 0.532 | – | – | O=c1[nH]nc2c3c(cc(F)cc13)N[C@H](C1CC1)[C@H]2c1ccccc1Cl [Compound 0207B, (11R,12R)-12-(2-chlorophenyl)-11-cyclopropyl-7-fluoro-2,3,10-triazatricyclo[7.3.1.0^{5,13}]trideca-1,5(13),6,8-tetraen-4-one]
106 | 2.91 10^−6 cm/s | 6.97 | – | – | O=c1[nH]nc2c3c(cc(F)cc13)N[C@@H](C1CCOCC1)[C@@H]2c1ccccc1Cl [Compound 0210A, (11S,12S)-12-(2-chlorophenyl)-7-fluoro-11-(oxan-4-yl)-2,3,10-triazatricyclo[7.3.1.0^{5,13}]trideca-1,5(13),6,8-tetraen-4-one]
– | 1.2 10^−6 cm/s | 12.3 | – | – | Cn1ncnc1[C@H]1CNc2cc(F)cc3c(=O)[nH]nc1c23 [Compound 0200B]
– | 0.77 10^−6 cm/s | 28.5 | – | – | CC[C@@H]1Nc2cc(F)cc3c(=O)[nH]nc(c23)[C@H]1c1ncnn1C [Compound 0202B]
– | 0.373 10^−6 cm/s | 33.3 | – | – | Cn1ncnc1[C@H]1c2n[nH]c(=O)c3cc(F)cc(c23)N[C@@H]1C1CCC(F)(F)CC1 [Compound 0215A]
– | 0.567 10^−6 cm/s | 24.7 | – | – | C[C@@H]1Nc2cc(F)cc3c(=O)[nH]nc(c23)[C@H]1c1ncnn1C [Compound 0201B]
2 | – | – | – | – | CC(C)[C@H]1Nc2cc(F)cc3c(=O)[nH]nc(c23)[C@@H]1c1c(F)cc(F)cc1F [Compound 0221A]
593 | – | – | – | – | O=c1[nH]nc2c3c(cc(F)cc13)NC(COCc1ccccc1)C2c1ccccc1Cl (stereo not drawn) [Compound 0257-4]
– | 5.76 10^−6 cm/s | 3.37 | – | – | O=c1[nH]nc2c3c(cc(F)cc13)N[C@@H](C1CCN(C3CCC(F)(F)CC3)CC1)[C@@H]2c1ccc(Cl)cc1F [Compound 0256A]
5780 | – | – | – | – | Cn1ncnc1[C@H]1c2n[nH]c(=O)c3cc(F)cc(c23)N[C@@H]1C1CCN(C2CCC(F)(F)CC2)CC1 [Compound 0266B]
281 | – | – | – | – | N#Cc1ccc([C@H]2c3n[nH]c(=O)c4cc(F)cc(c34)N[C@@H]2C2CCN(C3CCC(F)(F)CC3)CC2)c(F)c1 [Compound 0276A]
20 | – | – | – | – | N#Cc1ccc([C@@H]2c3n[nH]c(=O)c4cc(F)cc(c34)N[C@H]2C2CCC(F)(F)CC2)cc1F [Compound 0214B]
4 | – | – | – | – | O=c1[nH]nc2c3c(cc(F)cc13)NC(C1(F)CC1)C2c1ccc(Cl)cc1F (stereo not drawn) [Compound 0255-6]
936 | – | – | – | – | O=c1[nH]nc2c3c(cc(F)cc13)N[C@@H](C1CCN(C3CCC(F)(F)CC3)CC1)[C@@H]2c1ccc(F)cc1F [Compound 0271A]
